Experimental data: ChEMBL document CHEMBL3868599, “Strategy for designing selective α-l-rhamnosidase inhibitors: Synthesis and biological evaluation of l-DMDP cyclic isothioureas” (Bioorg Med Chem, 2017)

Key:
[1] = Inhibition of Penicillium decumbens alpha-L-rhamnosidase
[2] = Inhibition of Penicillium decumbens alpha-L-rhamnosidase using p-nitrophenyl-glycoside as substrate by spectrophotometric method
[3] = Competitive inhibition of Penicillium decumbens alpha-L-rhamnosidase using p-nitrophenyl-glycoside as substrate by Lineweaver-Burk plot analysis
[4] = tested on: Prunus dulcis; assay: Inhibition of almond beta-glucosidase at 1000 uM using p-nitrophenyl-glycoside as substrate by spectrophotometric method
[5] = target: T1, Uncharacterized protein (Sus scrofa) (UniProt I3LIR5); assay: Inhibition of porcine kidney trehalase assessed as D-glucose level at 1000 uM using maltose as substrate measured after 10 to 30 mins
T1 sequence (whole entry): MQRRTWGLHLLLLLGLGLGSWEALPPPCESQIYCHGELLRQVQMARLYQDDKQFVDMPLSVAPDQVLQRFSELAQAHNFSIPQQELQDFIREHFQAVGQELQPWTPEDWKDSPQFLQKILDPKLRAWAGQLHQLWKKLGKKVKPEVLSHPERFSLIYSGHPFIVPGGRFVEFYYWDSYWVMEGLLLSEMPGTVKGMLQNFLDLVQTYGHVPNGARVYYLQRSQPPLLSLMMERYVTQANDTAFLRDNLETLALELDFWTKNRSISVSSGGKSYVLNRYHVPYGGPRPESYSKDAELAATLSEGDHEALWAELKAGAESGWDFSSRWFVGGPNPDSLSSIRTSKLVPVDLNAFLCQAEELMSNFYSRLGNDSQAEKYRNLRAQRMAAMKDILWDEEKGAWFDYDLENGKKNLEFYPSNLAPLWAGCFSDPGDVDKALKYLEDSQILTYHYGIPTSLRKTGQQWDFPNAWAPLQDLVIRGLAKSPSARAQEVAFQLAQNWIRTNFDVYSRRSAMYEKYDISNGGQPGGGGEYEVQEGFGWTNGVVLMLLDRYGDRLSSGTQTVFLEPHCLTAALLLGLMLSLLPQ

[6] = target: T2, Tissue alpha-L-fucosidase (Bos taurus) (UniProt Q2KIM0); assay: Inhibition of bovine kidney alpha-L-fucosidase at 1000 uM using p-nitrophenyl-glycoside as substrate by spectrophotometric method
T2 sequence (whole entry): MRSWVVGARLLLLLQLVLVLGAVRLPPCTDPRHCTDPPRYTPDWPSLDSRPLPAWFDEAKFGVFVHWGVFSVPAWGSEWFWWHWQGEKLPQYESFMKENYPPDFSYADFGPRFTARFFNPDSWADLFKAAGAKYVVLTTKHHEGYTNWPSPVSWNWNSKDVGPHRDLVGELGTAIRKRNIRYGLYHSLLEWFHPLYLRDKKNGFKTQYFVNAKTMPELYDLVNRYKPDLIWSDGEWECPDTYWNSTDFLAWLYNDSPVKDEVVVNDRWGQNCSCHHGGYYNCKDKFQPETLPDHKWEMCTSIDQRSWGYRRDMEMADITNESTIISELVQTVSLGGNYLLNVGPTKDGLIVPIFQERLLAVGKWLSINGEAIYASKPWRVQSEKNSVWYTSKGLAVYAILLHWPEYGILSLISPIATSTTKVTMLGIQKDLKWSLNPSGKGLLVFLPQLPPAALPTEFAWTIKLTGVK

[7] = Inhibition of maltase in rat small intestinal brush border membranes assessed as D-glucose level using maltose as substrate measured after 10 to 30 mins
[8] = target: T3, Beta-galactosidase (Bos taurus, UniProt Q58D55); assay: (§1) Inhibition of bovine liver beta-galactosidase using p-nitrophenyl-glycoside as substrate by spectrophotometric method
T3 sequence (Q58D55 whole entry): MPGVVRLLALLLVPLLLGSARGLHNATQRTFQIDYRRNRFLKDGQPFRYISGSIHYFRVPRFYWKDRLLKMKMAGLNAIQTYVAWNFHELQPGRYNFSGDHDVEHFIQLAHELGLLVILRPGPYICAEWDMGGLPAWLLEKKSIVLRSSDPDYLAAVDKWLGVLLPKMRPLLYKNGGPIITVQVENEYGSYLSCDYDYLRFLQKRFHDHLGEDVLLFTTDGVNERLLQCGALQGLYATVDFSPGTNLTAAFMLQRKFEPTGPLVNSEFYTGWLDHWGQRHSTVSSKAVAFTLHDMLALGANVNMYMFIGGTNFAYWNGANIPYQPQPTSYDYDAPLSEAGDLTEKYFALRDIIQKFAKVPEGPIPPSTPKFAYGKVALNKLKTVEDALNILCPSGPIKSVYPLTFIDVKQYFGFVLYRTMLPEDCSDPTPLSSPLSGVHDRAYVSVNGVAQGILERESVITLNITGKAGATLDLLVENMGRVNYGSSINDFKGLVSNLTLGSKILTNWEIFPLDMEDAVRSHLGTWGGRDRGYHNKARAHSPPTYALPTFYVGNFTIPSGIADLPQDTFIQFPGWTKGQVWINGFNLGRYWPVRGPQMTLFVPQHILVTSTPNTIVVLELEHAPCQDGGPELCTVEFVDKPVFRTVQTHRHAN

[9] = Inhibition of bovine liver beta-glucosidase using p-nitrophenyl-glycoside as substrate by spectrophotometric method; set-up: species or system Bos taurus
[10] = tested on: Penicillium decumbens; assay: Inhibition of Penicillium decumbens alpha-L-rhamnosidase at 1000 uM using p-nitrophenyl-glycoside as substrate by spectrophotometric method
[11] = species on record: Homo sapiens; assay: Inhibition of human lysosomal beta-glucosidase at 1000 uM using 4-methylumbelliferyl-beta-D-glucopyranoside as substrate preincubated for 45 mins followed by substrate addition measured after 30 mins by fluorescence spectrophotometric method
[12] = Inhibition of rice alpha-glucosidase using p-nitrophenyl-glycoside as substrate by spectrophotometric method; set-up: species or system Oryza sativa
[13] = tested on: Escherichia coli; assay: Inhibition of Escherichia coli beta-glucuronidase at 1000 uM using p-nitrophenyl-glycoside as substrate by spectrophotometric method
[14] = tested on: Aspergillus niger; assay: Inhibition of Aspergillus niger amyloglucosidase assessed as D-glucose level at 1000 uM using maltose as substrate measured after 10 to 30 mins
[15] = tested on: Penicillium decumbens; assay: Potency index, ratio of 5-epi-deoxyrhamnojirimycin IC50 to compound IC50 for Penicillium decumbens alpha-L-rhamnosidase
[16] = target: T1, Uncharacterized protein (Sus scrofa); assay: Inhibition of porcine kidney trehalase assessed as D-glucose level at 100 uM using maltose as substrate measured after 10 to 30 mins
[17] = tested on: Aspergillus niger; assay: Inhibition of Aspergillus niger amyloglucosidase assessed as D-glucose level at 100 uM using maltose as substrate measured after 10 to 30 mins
[18] = tested on: Escherichia coli; assay: Inhibition of Escherichia coli beta-glucuronidase at 100 uM using p-nitrophenyl-glycoside as substrate by spectrophotometric method
[19] = target: T4, Beta-galactosidase (Bos taurus) (UniProt Q58D55); assay: as §1; details: concentration not given here
T4 sequence (whole entry): T3 sequence (Q58D55 whole entry)

[20] = tested on: Prunus dulcis; assay: Inhibition of almond beta-glucosidase at 100 uM using p-nitrophenyl-glycoside as substrate by spectrophotometric method
[21] = tested on: Oryza sativa; assay: Inhibition of rice alpha-glucosidase at 100 uM using p-nitrophenyl-glycoside as substrate by spectrophotometric method
[22] = species on record: Rattus norvegicus; assay: Inhibition of rat intestinal maltase assessed as D-glucose level at 100 uM using maltose as substrate measured after 10 to 30 mins
[23] = species on record: Homo sapiens; assay: Inhibition of human lysosomal beta-glucosidase at 100 uM using 4-methylumbelliferyl-beta-D-glucopyranoside as substrate preincubated for 45 mins followed by substrate addition measured after 30 mins by fluorescence spectrophotometric method
[24] = target: T2, Tissue alpha-L-fucosidase (Bos taurus); assay: Inhibition of bovine kidney alpha-L-fucosidase at 100 uM using p-nitrophenyl-glycoside as substrate by spectrophotometric method
[25] = species on record: Bos taurus; assay: Inhibition of bovine liver beta-glucosidase at 1000 uM using p-nitrophenyl-glycoside as substrate by spectrophotometric method
[26] = tested on: Penicillium decumbens; assay: Inhibition of Penicillium decumbens alpha-L-rhamnosidase at 750 uM relative to control
[27] = tested on: Penicillium decumbens; assay: Inhibition of Penicillium decumbens alpha-L-rhamnosidase at 1000 uM relative to control
[28] = tested on: Coffea; assay: Inhibition of coffee bean alpha-galactosidase at 1000 uM using p-nitrophenyl-glycoside as substrate by spectrophotometric method
[29] = target: T5, Alpha-mannosidase (Canavalia ensiformis) (UniProt C0HJB3); assay: Inhibition of Jack bean alpha-mannosidase at 1000 uM preincubated for 45 mins followed by addition of p-nitrophenyl-glycoside as substrate measured after 30 mins by fluorescence spectrophometry
T5 sequence (whole entry): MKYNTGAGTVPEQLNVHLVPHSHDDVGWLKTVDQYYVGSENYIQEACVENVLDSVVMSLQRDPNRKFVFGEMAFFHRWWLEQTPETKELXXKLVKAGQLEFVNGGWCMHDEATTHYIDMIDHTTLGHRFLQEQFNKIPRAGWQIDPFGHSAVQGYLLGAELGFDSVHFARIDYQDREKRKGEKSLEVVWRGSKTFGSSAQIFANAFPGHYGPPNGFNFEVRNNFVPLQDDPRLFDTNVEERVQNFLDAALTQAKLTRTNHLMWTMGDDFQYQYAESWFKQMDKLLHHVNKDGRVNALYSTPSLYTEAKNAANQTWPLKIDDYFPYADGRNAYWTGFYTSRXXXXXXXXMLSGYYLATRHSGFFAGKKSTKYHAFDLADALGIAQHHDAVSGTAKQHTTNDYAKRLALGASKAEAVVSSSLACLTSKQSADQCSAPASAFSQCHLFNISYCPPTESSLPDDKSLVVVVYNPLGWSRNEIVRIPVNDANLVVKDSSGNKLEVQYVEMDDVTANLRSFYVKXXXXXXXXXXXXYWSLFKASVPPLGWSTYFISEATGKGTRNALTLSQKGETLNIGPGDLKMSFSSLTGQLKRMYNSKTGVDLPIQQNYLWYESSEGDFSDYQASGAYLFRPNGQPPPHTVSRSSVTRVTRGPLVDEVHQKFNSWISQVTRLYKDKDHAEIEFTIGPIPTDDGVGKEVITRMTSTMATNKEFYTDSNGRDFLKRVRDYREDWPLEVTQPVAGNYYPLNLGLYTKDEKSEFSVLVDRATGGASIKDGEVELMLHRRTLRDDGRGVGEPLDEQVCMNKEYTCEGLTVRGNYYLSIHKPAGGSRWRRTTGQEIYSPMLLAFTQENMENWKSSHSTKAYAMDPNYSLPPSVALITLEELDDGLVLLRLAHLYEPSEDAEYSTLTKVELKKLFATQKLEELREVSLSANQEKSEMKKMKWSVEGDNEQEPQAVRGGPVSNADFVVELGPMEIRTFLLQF

[30] = Inhibition of Aspergillus niger amyloglucosidase assessed as D-glucose level using maltose as substrate measured after 10 to 30 mins
[31] = Inhibition of Helix pomatia beta-mannosidase using p-nitrophenyl-glycoside as substrate by spectrophotometric method
[32] = Inhibition of yeast alpha-glucosidase using p-nitrophenyl-glycoside as substrate by spectrophotometric method; set-up: species or system Saccharomyces cerevisiae
[33] = Inhibition of almond beta-glucosidase using p-nitrophenyl-glycoside as substrate by spectrophotometric method; set-up: species or system Prunus dulcis
[34] = tested on: Escherichia coli; assay: Inhibition of Escherichia coli beta-galactosidase at 1000 uM using p-nitrophenyl-glycoside as substrate by spectrophotometric method

| Compound | IC50 [2] | inhibition [4] | inhibition [5] | inhibition [6] | IC50 [7] | IC50 [8] | IC50 [9] | inhibition [10] | inhibition [11] | IC50 [12] | inhibition [13] | inhibition [14] | further results |
| --- | --- | --- | --- | --- | --- | --- | --- | --- | --- | --- | --- | --- | --- |
| C[C@H]1NC[C@H](O)[C@H](O)[C@H]1O | 10 µM |  |  |  |  |  |  |  |  |  |  |  | IC50 [1]: 5 µM; Ki [3]: 4.2 µM |
| CCCCCCCCNC(=S)N1[C@@H](CO)[C@H](O)[C@@H](O)[C@@H]1CO |  | < 50% | < 50% | < 50% | 1000 µM | 266 µM | 178 µM | < 50% | < 50% | 1000 µM | < 50% | < 50% |  |
| OC[C@H]1[C@H](O)[C@@H](O)[C@@H]2CS/C(=N/Cc3ccc(Cl)c(Cl)c3)N12 | 0.23 µM |  |  |  |  |  |  |  |  |  |  |  | Ratio IC50 [15]: 46; Ki [3]: 0.11 µM |
| OC[C@H]1[C@H](O)[C@@H](O)[C@@H]2CS/C(=N/CCCCCCCCCc3ccccc3)N12 | 0.87 µM |  |  |  |  |  | 33 µM |  |  |  |  |  | inhibition [16]: < 50%; inhibition [17]: < 50%; inhibition [18]: < 50%; inhibition [19]: < 50%; inhibition [20]: < 50%; inhibition [21]: < 50%; inhibition [22]: < 50%; inhibition [23]: < 50%; inhibition [24]: < 50% |
| CCCCCC/N=C1/SC[C@H]2[C@H](O)[C@@H](O)[C@H](CO)N12 | 5.3 µM | < 50% | < 50% | < 50% | 799 µM | 599 µM |  |  | < 50% | 418 µM | < 50% | < 50% | inhibition [25]: < 50% |
| C[C@@H]1NC[C@H](O)[C@H](O)[C@H]1O |  |  |  |  |  |  |  |  |  |  |  |  | inhibition [26]: < 50% |
| OC[C@@H]1NC[C@H](O)[C@@H]1O |  |  |  |  |  |  |  |  |  |  |  |  | inhibition [27]: < 50% |
| CCCCNC(=S)N1[C@@H](CO)[C@H](O)[C@@H](O)[C@@H]1CO |  | < 50% | < 50% | < 50% | 1000 µM | 473 µM | 939 µM | < 50% | < 50% | 741 µM | < 50% | < 50% |  |
| OC[C@H]1N[C@H](CO)[C@@H](O)[C@@H]1O |  |  |  |  |  |  | 9.7 µM | < 50% | < 50% |  |  |  | inhibition [28]: < 50%; inhibition [29]: < 50%; IC50 [30]: 116 µM; IC50 [31]: 721 µM; IC50 [32]: 7.8 µM; IC50 [33]: 10 µM; inhibition [34]: < 50% |
